Results taken from patent publication US20020137154A1, “Methods for improving cell growth and alcohol production during fermentation” (priority 2000, published 2002).

Tested on: Klebsiella oxytoca P2
Assay: Batch fermentation of Klebsiella oxytoca P2 in 1% CSL medium and xylose with acetaldehyde: ethanol production and cell growth
Type: cell-based
Details: for Ethanol Production Maximum / Ethanol Production Maximum % Control / Ethanol yield / Initial Growth (OD @ 24 h) % Control / Initial Growth (OD @ 24 h) OD / Maximum Cell Density % Control / Maximum Cell Density OD / Maximum Cell Density Time / Time to completion / Volumetric Productivity % Control (based on Avg) / Volumetric Productivity % Control (based on Max) / Volumetric Productivity Average / Volumetric Productivity Maximum: K. oxytoca P2, 1% CSL+xylose
Method: Two types of media were tested: 1% CSL and Luria broth (LB). Each contained 97 g of either xylose or glucose per liter. Luria Broth consists of, per liter: 10 g Difco® Tryptone, 5 g Difco® Yeast Extract and 5 g NaCl. The 1% CSL medium consists of Corn Steep Liquor (1% w/v) plus mineral salts (mineral salts per liter: 1 g of KH2PO4. 0.5 g of K2HPO4, 3.1 g of (NH4)2SO4, 0.4 g of MgCl2·6H2), and 20 mg FeCl3·6H2O).
Luria Broth was prepared by autoclaving a 2× nutrient stock containing, per liter: 20 g Difco® Tryptone, 10 g Difo® Yeast Extract, and 10 g NaCl. Sugars (xylose or glucose) were autoclaved separately. A 1% CSL medium was prepared as follows: Commercial Corn Steep Liquor (CSL; 50% dry weight/50% water) was diluted with tap water to make a 20X stock containing 100 g dry weight of Corn Steep Liquor/L and was adjusted to pH 7.2 with NaOH (50%). After sterilization by autoclaving, the 20X CSL stock was clarified by centrifugation at 5000×g for 10 minutes. Magnesium was added as a 100× stock solution (40 g/L MgCl2·6H2O). Iron was added as a 1000× stock solution made by dissolving 20 g FeCl3·6H2O in 175 mL of HCl and adjusting to 1 L with sterile water. Nitrogen, sulfur and phosphorus were added using a 20× stock solution containing the following (per liter): 20 g of KH2PO4, 10 g of K2HPO4 and 62 g of (NH4)2SO4. Stock solutions containing minerals were sterilized separately by autoclaving. Final media was prepared by adding 750 mL of water to 1 L bottle containing 100 g of xylose or glucose. This solution was autoclaved, and stock solutions were added to provide a 1× concentration, and the final volume adjusted to 1 L. This broth was further diluted by the addition of supplements (acetaldehyde stock or distilled water) during fermentation with a resulting sugar content of 97 g/L.
Inocula were grown in same media used for fermentation and were prepared as follows. Three colonies from a fresh plate were used to inoculate seed cultures: 250-mL flask containing 100 mL medium. These cultures were grown with agitation (120 rpm) for 12-16 hours at 35° C. to a final OD550nm of approximately 2.0-2.5. Cells were harvested by centrifugation at 5000×g for 5 minutes, and resuspended in fresh media to an OD550nm of 0.1. The resulting suspension was distributed into 500-mL beakers containing 345 ml each of fermentation medium. Acetaldehyde was added as indicated. Batch fermentations (35° C., 100 rpm) were maintained at pH 6.5 by the automatic addition of 2N KOH. Cell mass, ethanol, and base addition (2N KOH) were recorded during 96 hours of incubation.
Cell mass was estimated by measuring OD550nm using Baush & Lomb® Spectronic 70 spectrophotometer. […] Ethanol was measured by gas chromatography using a Varian® 3400 CX gas chromatograph with 1-propanol as an internal standard.
This example describes the effect of the addition of acetaldehyde to 1% CSL and xylose medium, which has been inoculated with ethanologenic, cells, i.e., Klebsiella oxytoca P2.
Maximum ethanol production is shown in grams/liter (g/L). The ethanol yield is shown in grams of ethanol/grams of added sugar. Maximum volumetric productivity is shown in grams of ethanol/(liter)(hour). The average productivity is calculated form the start of fermentation to the completion of fermentation in grams ethanol/(liter)(hour).
Acetaldehyde was added to the fermentation medium at five different concentrations and time points. Where only one acetaldehyde value is provided, this amount of acetaldehyde was added at the start of fermentation only (i.e., 0.25 g/L acetaldehyde or 0.5 g/L). Where two or three additions are indicated, the first volume was added at the start of fermentation and additional doses of the nutrient compound were added after 8 hours of fermentation or at 8-hour intervals.

[1] = 2 × 0.25 g/L (start, after 8 hours)
[2] = 3 × 0.25 g/L (start, then 8-hour intervals)
[3] = K. oxytoca P2, CSL and xylose, 0.5 g/L at the start

CC=O [Acetaldehyde, acetaldehyde]
Ethanol Production Maximum (0.25 g/L at start): 25.43 g/L | Ethanol Production Maximum % Control (0.25 g/L at start): 107.35% | Ethanol yield (0.25 g/L at start): 0.262 grams of ethanol/grams of added sugar | Initial Growth (OD @ 24 h) % Control (0.25 g/L at start): 93.90% | Initial Growth (OD @ 24 h) OD (0.25 g/L at start): 3.54 OD | Maximum Cell Density % Control (0.25 g/L at start): 111.96% | Maximum Cell Density OD (0.25 g/L at start): 5.68 OD | Maximum Cell Density Time (0.25 g/L at start): 72.00 h | Time to completion (0.25 g/L at start): >96 h | Volumetric Productivity % Control (based on Avg) (0.25 g/L at start): 107.35% | Volumetric Productivity % Control (based on Max) (0.25 g/L at start): 135.46% | Volumetric Productivity Average (0.25 g/L at start): 0.265 grams ethanol/(liter)(hour) | Volumetric Productivity Maximum (0.25 g/L at start): 0.47 grams of ethanol/(liter)(hour) | Ethanol Production Maximum (0.5 g/L at start): 26.53 g/L | Ethanol Production Maximum % Control (0.5 g/L at start): 111.98% | Ethanol yield (0.5 g/L at start): 0.273 grams of ethanol/grams of added sugar | Initial Growth (OD @ 24 h) % Control (0.5 g/L at start): 69.39% | Initial Growth (OD @ 24 h) OD (0.5 g/L at start): 2.61 OD | Maximum Cell Density % Control (0.5 g/L at start): 116.26% | Maximum Cell Density OD (0.5 g/L at start): 5.89 OD | Maximum Cell Density Time (0.5 g/L at start): 96.00 h | Time to completion (0.5 g/L at start): >96 h | Volumetric Productivity % Control (based on Avg) (0.5 g/L at start): 111.98% | Volumetric Productivity % Control (based on Max) (0.5 g/L at start): 147.11% | Volumetric Productivity Average (0.5 g/L at start): 0.276 grams ethanol/(liter)(hour) | Volumetric Productivity Maximum (0.5 g/L at start): 0.51 grams of ethanol/(liter)(hour) | Ethanol Production Maximum [1]: 25.56 g/L | Ethanol Production Maximum % Control [1]: 107.88% | Ethanol yield [1]: 0.263 grams of ethanol/grams of added sugar | Initial Growth (OD @ 24 h) % Control [1]: 88.59% | Initial Growth (OD @ 24 h) OD [1]: 3.34 OD | Maximum Cell Density % Control [1]: 104.50% | Maximum Cell Density OD [1]: 5.30 OD | Maximum Cell Density Time [1]: 96.00 h | Time to completion [1]: >96 h | Volumetric Productivity % Control (based on Avg) [1]: 107.88% | Volumetric Productivity % Control (based on Max) [1]: 126.68% | Volumetric Productivity Average [1]: 0.266 grams ethanol/(liter)(hour) | Volumetric Productivity Maximum [1]: 0.44 grams of ethanol/(liter)(hour) | Ethanol Production Maximum [2]: 26.14 g/L | Ethanol Production Maximum % Control [2]: 110.32% | Ethanol yield [2]: 0.269 grams of ethanol/grams of added sugar | Initial Growth (OD @ 24 h) % Control [2]: 95.66% | Initial Growth (OD @ 24 h) OD [2]: 3.60 OD | Maximum Cell Density % Control [2]: 106.51% | Maximum Cell Density OD [2]: 5.40 OD | Maximum Cell Density Time [2]: 72.00 h | Time to completion [2]: >96 h | Volumetric Productivity % Control (based on Avg) [2]: 110.32% | Volumetric Productivity % Control (based on Max) [2]: 135.55% | Volumetric Productivity Average [2]: 0.272 grams ethanol/(liter)(hour) | Volumetric Productivity Maximum [2]: 0.47 grams of ethanol/(liter)(hour) | ethanol production as compared to the control [3]: highest amount of ethanol production | initial growth and maximum cell density as compared to the control [3]: increased initial growth and maximum cell density
